Laboratory results taken from patent publication US20240051937A1, “ISOINDOLINONE AMIDE COMPOUNDS USEFUL TO TREAT DISEASES ASSOCIATED WITH GSPT1” (Monte Rosa Therapeutics, Inc., priority 2021, published 2024).
pIC50: −log10 of the molar value. Where two headings read alike, the source gives them in different places.

What was measured:
[1] = biological target: T1, Full length wild-type cereblon CRBN (Homo sapiens, UniProt Q96SW2); assay: Fluorescence polarization (FP) assay indicating cereblon binding
T1 construct: Full length wild-type cereblon CRBN (80.0 nM, 10 μL) was incubated in assay buffer
In short: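 CRBN (80.0 nM) preincubated 30 min at RT with compound (300–0.937 or 3000–9.3 nM, 12 points) in 20 mM HEPES pH 8.0, 150 NaCl, 0.5 mM TCEP, 0.05% Tween 20. Cy5-type thalidomide-linked probe added at 5 nM final; FP read after 12 h (ex 590/em 675 nm), normalized to DMSO, IC50 derived.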

IKZF1 = biological target: T2, IKZF1 (Homo sapiens, UniProt Q13422+Q96SW2); assay: Selectivity determination by Western blot assay in MM1S cells: IKZF1; assay type: cell-based; parameters: key: A represents no degradation observed at 30 μM; B represents trace degradation at 30 μM (below 20%); C represents weak degradation at 30 μM (below 50%); D represents degradation at 30 μM (>90%); E represents degradation at 3 μM (>90%); F represents degradation at 0.3 μM (>90%); settings: MM1S cells, 0.3, 3 and 30 μM, 6 hours
T2 construct: MM1S cells were purchased from ATCC (cat. Number CRL-2974); host or cells: MM1S cells
Description: (§1) MM1S cells were purchased from ATCC (cat. Number CRL-2974), sub-cultured in […] RPMI 1640 with 10% FBS, supplemented with Ix P/S and incubated at 37° C., […]. Compounds were stored as 10 mM DMSO stock. For the assay, MM1S cells (3 million cells/well) were plated in 6-well plates and incubated over night. Cells were treated with respective compounds using a serial dilution: 0.3 μM, 3 μM and 30 μM as well as a vehicle only (DMSO) control for 6 hours. Media with suspension cells was subsequently transferred to 15 mL conical tubes, wells rinsed twice with ice-cold PBS and merged with cell suspension in respective 15 mL conical tube. Cells were spinned down, supernatant aspirated, pellets resuspended in ice-cold PBS and transferred to microtubes. Cells were spinned down, supernatant aspirated and pellets resuspended in 120 μL RIPA lysis buffer supplemented with protease and phosphatase inhibitors. Cell lysates were incubated on ice for 20 minutes followed by centrifugation at >20,000×g for 5 min. Supernatants were transferred to fresh microtubes and stored at −80° C. Total protein concentration was determined using a BCA assay with a BSA standard curve and concentration of all samples was adjusted to 1 mg/mL. […] Chemiluminescence signals were then detected using a LAS-4000 system with default settings and signals quantified using Image Studio Lite software (version 5.2). […]

CK1alpha = biological target: T3, CK1alpha (Homo sapiens, UniProt P48729+Q96SW2); assay: Selectivity determination by Western blot assay in MM1S cells: CK1alpha; assay type: cell-based; settings: MM1S cells, 0.3, 3 and 30 μM, 6 hours
T3 construct: MM1S cells were purchased from ATCC (cat. Number CRL-2974); host or cells: MM1S cells
Description: as §1

[2] = cereblon binding, CRBN 80.0 nM, probe 5 nM, FP read after 12 hours, read-out: rFP IC50
[3] = fluorescence polarization assay, read-out: IC50 value (cereblon binding)

T1 sequence (Q96SW2 whole entry): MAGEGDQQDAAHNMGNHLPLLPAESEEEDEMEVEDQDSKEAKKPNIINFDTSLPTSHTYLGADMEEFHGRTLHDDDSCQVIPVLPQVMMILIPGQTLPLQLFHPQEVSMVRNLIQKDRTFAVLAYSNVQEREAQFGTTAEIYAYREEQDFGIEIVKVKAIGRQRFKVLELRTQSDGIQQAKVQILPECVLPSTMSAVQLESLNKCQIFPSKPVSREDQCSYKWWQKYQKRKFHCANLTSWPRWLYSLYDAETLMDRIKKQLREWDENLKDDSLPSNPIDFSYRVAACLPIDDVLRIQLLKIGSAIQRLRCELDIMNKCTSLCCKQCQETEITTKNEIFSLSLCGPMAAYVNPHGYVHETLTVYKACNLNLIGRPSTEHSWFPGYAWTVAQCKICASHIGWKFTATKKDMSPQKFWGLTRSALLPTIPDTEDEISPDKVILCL
T3 sequence (P48729 whole entry): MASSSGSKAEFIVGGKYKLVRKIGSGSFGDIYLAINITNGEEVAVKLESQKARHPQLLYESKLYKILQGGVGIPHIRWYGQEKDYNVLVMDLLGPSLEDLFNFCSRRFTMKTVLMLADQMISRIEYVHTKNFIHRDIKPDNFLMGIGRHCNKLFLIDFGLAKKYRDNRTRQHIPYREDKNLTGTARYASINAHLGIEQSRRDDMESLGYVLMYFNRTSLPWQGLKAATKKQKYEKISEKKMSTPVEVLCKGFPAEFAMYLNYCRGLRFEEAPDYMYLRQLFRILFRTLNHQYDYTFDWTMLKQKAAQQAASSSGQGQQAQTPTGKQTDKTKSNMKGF
T3 sequence (Q96SW2 whole entry): as the sequence (Q96SW2 whole entry) above
T3 sequence (Q16531 whole entry partner): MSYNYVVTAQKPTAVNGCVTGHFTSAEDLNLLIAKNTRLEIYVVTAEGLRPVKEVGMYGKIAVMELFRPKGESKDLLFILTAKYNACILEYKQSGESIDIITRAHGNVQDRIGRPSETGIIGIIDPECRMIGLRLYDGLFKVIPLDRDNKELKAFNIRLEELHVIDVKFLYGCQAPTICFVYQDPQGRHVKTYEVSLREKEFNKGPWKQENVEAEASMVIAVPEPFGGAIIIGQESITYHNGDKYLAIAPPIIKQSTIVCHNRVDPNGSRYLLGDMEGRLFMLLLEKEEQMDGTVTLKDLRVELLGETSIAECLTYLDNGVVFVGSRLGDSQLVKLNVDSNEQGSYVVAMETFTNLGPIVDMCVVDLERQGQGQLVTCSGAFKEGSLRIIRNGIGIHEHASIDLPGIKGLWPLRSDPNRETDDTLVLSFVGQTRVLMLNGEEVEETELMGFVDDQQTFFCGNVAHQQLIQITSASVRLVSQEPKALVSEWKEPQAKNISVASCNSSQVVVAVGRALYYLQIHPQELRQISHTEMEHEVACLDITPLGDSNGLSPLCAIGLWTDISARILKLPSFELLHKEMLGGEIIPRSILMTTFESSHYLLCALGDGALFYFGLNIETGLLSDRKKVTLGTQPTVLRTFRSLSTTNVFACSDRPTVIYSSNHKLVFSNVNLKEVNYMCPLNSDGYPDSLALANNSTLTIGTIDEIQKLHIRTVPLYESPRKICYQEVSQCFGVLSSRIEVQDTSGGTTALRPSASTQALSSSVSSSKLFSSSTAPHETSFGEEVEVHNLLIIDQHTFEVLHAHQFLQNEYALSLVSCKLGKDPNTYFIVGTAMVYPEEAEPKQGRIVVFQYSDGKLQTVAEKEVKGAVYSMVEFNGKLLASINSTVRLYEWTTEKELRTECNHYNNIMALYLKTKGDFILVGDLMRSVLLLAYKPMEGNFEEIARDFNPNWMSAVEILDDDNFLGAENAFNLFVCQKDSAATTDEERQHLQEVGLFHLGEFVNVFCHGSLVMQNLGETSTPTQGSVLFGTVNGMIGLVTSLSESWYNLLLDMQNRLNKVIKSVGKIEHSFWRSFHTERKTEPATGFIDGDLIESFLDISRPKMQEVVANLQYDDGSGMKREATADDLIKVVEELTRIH
T2 sequence (Q13422 whole entry): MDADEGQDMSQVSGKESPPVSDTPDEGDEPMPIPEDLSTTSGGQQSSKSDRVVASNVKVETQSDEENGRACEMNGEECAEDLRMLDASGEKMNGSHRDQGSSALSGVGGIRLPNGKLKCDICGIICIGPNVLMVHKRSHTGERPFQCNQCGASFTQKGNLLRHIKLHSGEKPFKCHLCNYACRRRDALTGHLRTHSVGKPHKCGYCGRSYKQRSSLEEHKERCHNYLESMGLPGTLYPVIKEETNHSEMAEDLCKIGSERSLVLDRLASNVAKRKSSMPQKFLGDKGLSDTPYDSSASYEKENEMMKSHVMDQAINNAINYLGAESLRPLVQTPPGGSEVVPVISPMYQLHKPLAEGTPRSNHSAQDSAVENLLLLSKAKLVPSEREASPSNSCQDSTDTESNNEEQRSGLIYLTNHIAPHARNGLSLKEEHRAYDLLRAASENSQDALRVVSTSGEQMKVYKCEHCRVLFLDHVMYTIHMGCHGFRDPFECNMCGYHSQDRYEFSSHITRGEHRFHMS
T2 sequence (Q96SW2 whole entry): as the sequence (Q96SW2 whole entry) above
T2 sequence (Q16531 whole entry partner): as the sequence (Q16531 whole entry partner) above

Compound | pIC50 [1, 2] | pIC50 [1, 3] | IKZF1 degradation code (IKZF1) | CK1alpha degradation code (CK1alpha)
Cc1ccc(NC(=O)CCc2ccc3c(c2)C(=O)N(C2CCC(=O)NC2=O)C3)cc1Cl (centres unmarked) [Compound 1] | ≥ 6.30 | > 5.96 | A | B (B represents trace degradation at 30 μM (below 20%))
Cc1c(Cl)cc(NC(=O)CCc2ccc3c(c2)C(=O)N(C2CCC(=O)NC2=O)C3)cc1CN1CCOCC1 (centres unmarked) [Compound 2] | ≥ 6.30 | > 5.96 | A | C (C represents weak degradation at 30 μM (below 50%))
